Results from the supplement of paper PMC8960247.
± gives the standard error.

Assays:
UMB1949 (TSC2-deficient) = assay: relative viability vs DMSO (fraction); higher = less cytotoxic; conditions: serum: 0.1% FBS, 72 h;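 note: renal angiomyolipoma cell lines screened in 384-well plates, viability normalized per plate to DMSO-treated cells, each plate carrying 50 nM rapamycin and 1 µM staurosporine controls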
621-102 (TSC2-deficient) [1] = assay: as above; conditions: serum: 0.1% FBS, 72 h
621-103 (TSC2-rescued) = assay: relative viability vs DMSO; higher = less cytotoxic; conditions: serum: 10% FBS, 72 h
621-102 (TSC2-deficient) [2] = assay: as above; conditions: serum: 10% FBS, 72 h

Structure (SMILES)	relative viability (UMB1949 (TSC2-deficient); 0.0128 nM)	relative viability (UMB1949 (TSC2-deficient); 0.064 nM)	relative viability (UMB1949 (TSC2-deficient); 0.32 nM)	relative viability (UMB1949 (TSC2-deficient); 1.6 nM)	relative viability (UMB1949 (TSC2-deficient); 8 nM)	relative viability (UMB1949 (TSC2-deficient); 40 nM)	relative viability (UMB1949 (TSC2-deficient); 200 nM)	relative viability (UMB1949 (TSC2-deficient); 1000 nM)	relative viability (UMB1949 (TSC2-deficient); 5000 nM)	relative viability (621-102 (TSC2-deficient) [1]; 0.0128 nM)	relative viability (621-102 (TSC2-deficient) [1]; 0.064 nM)	relative viability (621-102 (TSC2-deficient) [1]; 0.32 nM)	relative viability (621-102 (TSC2-deficient) [1]; 1.6 nM)	relative viability (621-102 (TSC2-deficient) [1]; 8 nM)	relative viability (621-102 (TSC2-deficient) [1]; 40 nM)	relative viability (621-102 (TSC2-deficient) [1]; 200 nM)	relative viability (621-102 (TSC2-deficient) [1]; 1000 nM)	relative viability (621-102 (TSC2-deficient) [1]; 5000 nM)	relative viability (621-103 (TSC2-rescued); 0.0001 µM)	relative viability (621-103 (TSC2-rescued); 0.001 µM)	relative viability (621-103 (TSC2-rescued); 0.01 µM)	relative viability (621-103 (TSC2-rescued); 0.1 µM)	relative viability (621-103 (TSC2-rescued); 1 µM)	relative viability (621-103 (TSC2-rescued); 10 µM)	relative viability (621-102 (TSC2-deficient) [2]; 0.0001 µM)	relative viability (621-102 (TSC2-deficient) [2]; 0.001 µM)	relative viability (621-102 (TSC2-deficient) [2]; 0.01 µM)	relative viability (621-102 (TSC2-deficient) [2]; 0.1 µM)	relative viability (621-102 (TSC2-deficient) [2]; 1 µM)	relative viability (621-102 (TSC2-deficient) [2]; 10 µM)
O=C(/C=C/c1ccc(CN(CCO)CCc2c[nH]c3ccccc23)cc1)NO [LAQ824]	1.01	0.942	0.887	0.67	0.0147	0.00199	0.000488	0.000621	0.000364	1.04	0.934	0.921	0.89	0.628	0.173	0.0545	0.00134	0.000846	94.4 ± 1.2%	94.1 ± 1.4%	67.9 ± 1.9%	21.1 ± 0.62%	2.61 ± 0.065%	1.459 ± 0.0077%	92.2 ± 3.3%	87.2 ± 0.88%	83.3 ± 3.2%	54.8 ± 0.8%	31.7 ± 1.1%	16.2 ± 0.46%
Nc1ncnc2c1c(-c1cccc(OCc3ccccc3)c1)cn2C1CC(CN2CCCC2)C1 (stereo not given) [NVP-ADW742]	1.02	1.04	1.13	1.14	1.07	1.09	0.995	0.273	0.0444	1.03	1.02	1.03	1.04	1.05	0.948	0.817	0.724	0.0714	98.4 ± 1%	96 ± 1.5%	94.3 ± 2.1%	96.7 ± 2.4%	92.3 ± 6%	59.3 ± 0.83%	74.8 ± 0.9%	61.6 ± 3.1%	69.9 ± 9.3%	66.3 ± 5.1%	77.3 ± 6%	70.1 ± 4.5%
CNC(=O)c1cc(Oc2ccc(NC(=O)Nc3cc(C(C)(C)C)nn3-c3ccc4ncccc4c3)c(F)c2)ccn1 [DCC-2036]	1.18	1.26	1.25	1.24	1.32	0.354	1.05	0.00706	0.00896	1.65	1.68	1.69	1.63	1.59	1.62	1.43	0.931	0.0177	96.92 ± 0.83%	98.2 ± 4.1%	90.7 ± 1.8%	69.51 ± 0.61%	59.4 ± 0.26%	9.01 ± 0.21%	100 ± 5.8%	97.14 ± 0.62%	92.2 ± 4.6%	87 ± 1.4%	87.2 ± 2%	9.801 ± 0.031%
Cc1cc(Nc2cc(N3CCN(C)CC3)nc(Sc3ccc(NC(=O)C4CC4)cc3)n2)n[nH]1 [VX-680 (MK-0457)]	0.947	0.818	0.872	0.0803	0.0315	0.0297	0.0316	0.0244	0.0016	1.08	1	0.776	0.176	0.0382	0.0452	0.0422	0.0108	0.00299	99.1 ± 1.1%	103 ± 1.9%	100 ± 1.9%	94.8 ± 6.2%	78.2 ± 2%	20.4 ± 0.69%	101 ± 4.7%	90.4 ± 2.4%	98.8 ± 1.7%	81.4 ± 0.96%	76 ± 2.1%	47.8 ± 0.98%
c1cncc(CN2CCC(n3ncc4c(N5CCOCC5)nc(-c5ccc6[nH]ccc6c5)nc43)CC2)c1 [WAY-600]	0.882	0.972	1.04	0.972	1.02	0.933	0.892	0.354	0.00636	1.07	1.25	1.04	1.18	1.21	1.19	0.798	0.345	0.00768	99.7 ± 2.6%	97.8 ± 4.8%	103 ± 3.9%	98.1 ± 1.8%	54.5 ± 2.2%	7.78 ± 0.25%	89.809 ± 0.075%	104 ± 2.2%	99.7 ± 2.1%	100 ± 1.8%	82.5 ± 1%	2.21 ± 0.054%
CC(C)C[C@H](NC(=O)CNC(=O)c1cc(Cl)ccc1Cl)B1OC(=O)C(CC(=O)O)(CC(=O)O)O1 [MLN9708]	1.05	1.02	1.01	1.02	1	0.0169	0.00139	0.00101	0.000797	1.35	1.13	1.2	1.17	1	0.392	0.0117	0.00236	0.000667	99.131 ± 0.04%	98.8 ± 0.59%	102 ± 2.2%	4.63 ± 0.36%	1.63 ± 0.029%	0.886 ± 0.074%	103 ± 2.1%	104 ± 2.3%	107 ± 4.3%	21.9 ± 4.2%	3.28 ± 0.3%	2.38 ± 0.081%
O=C(Cc1ccc(-c2ccc(OCCN3CCOCC3)cc2)cn1)NCc1ccccc1 [KX2-391]	1.23	1.1	1.12	1.01	0.0594	0.00501	0.00135	0.00316	0.00418	1.18	0.965	1.06	0.813	0.205	0.0932	0.069	0.0401	0.0343	101 ± 3.5%	96.4 ± 5.7%	58.7 ± 3.5%	50.8 ± 1%	33.05 ± 0.28%	34.1 ± 1.5%	90.4 ± 1.4%	98.1 ± 14%	70 ± 2.2%	47.7 ± 0.7%	35.2 ± 2.1%	37.3 ± 0.46%
O=C1Nc2ccccc2/C1=C1/Nc2ccccc2C1=O [Indirubin]	0.983	1.03	1.02	0.972	0.941	0.964	0.87	0.811	0.749	1.08	0.927	1.06	0.906	0.922	0.996	0.841	0.652	0.833	86.1 ± 1.6%	82.2 ± 3.9%	83.7 ± 2.7%	81.9 ± 4%	79.1 ± 3.3%	64 ± 2.4%	97.2 ± 1.8%	92.9 ± 2%	91.53 ± 0.38%	87.8 ± 2.7%	92.2 ± 1.6%	89.5 ± 2.1%
CCN1CCN(Cc2ccc(-c3cc4c(N[C@H](C)c5ccccc5)ncnc4[nH]3)cc2)CC1 [AEE788]	1.02	0.971	1	1.07	0.964	1.01	0.767	0.305	0.00689	1.06	0.968	1.01	0.786	0.612	0.64	0.156	0.034	0.00903	94.8 ± 1.2%	107.1 ± 0.38%	103.4 ± 0.79%	102 ± 3.6%	100 ± 3.8%	10.7 ± 1%	106 ± 2.1%	107.3 ± 1%	106 ± 4.4%	104 ± 1.6%	100 ± 3.6%	36.7 ± 12%
c1ccc2c(-c3cnn4cc(-c5ccc(N6CCNCC6)cc5)cnc34)ccnc2c1	1.1	1.14	1.15	1.08	1.07	1.1	0.943	0.00737	0.0056	0.953	0.778	0.956	0.795	0.719	0.83	0.534	0.0661	0.0132	90.6 ± 2.2%	104 ± 0.35%	93.2 ± 1.9%	88 ± 1.8%	62.5 ± 2.2%	0.919 ± 0.12%	92.1 ± 4.3%	95.1 ± 3.5%	92.2 ± 3.1%	91.6 ± 2.6%	71.9 ± 2.9%	0.885 ± 0.12%
O=C(Nc1c[nH]nc1-c1nc2ccc(CN3CCOCC3)cc2[nH]1)NC1CC1 [AT9283]	1.11	1.02	0.973	0.996	0.963	0.0359	0.0512	0.00329	0.00115	1.09	0.98	0.952	0.945	0.718	0.031	0.0179	0.00825	0.00249	73 ± 1.1%	89.4 ± 2.2%	81.5 ± 2.2%	71.4 ± 2.8%	31.5 ± 3.9%	14.6 ± 0.54%	94.6 ± 1.6%	103.4 ± 0.37%	106 ± 1.6%	85.8 ± 4.9%	53.12 ± 0.43%	15.2 ± 1.2%
Nc1nc(Cl)nc2c1ncn2[C@@H]1O[C@H](CO)[C@@H](O)[C@@H]1F [Clofarabine]	1.06	0.989	1.02	1.05	1.05	0.404	0.00754	0.00286	0.00163	1.11	0.982	1.02	0.905	0.929	0.0836	0.0188	0.0106	0.00741	107 ± 2.7%	101.98 ± 0.033%	102.7 ± 0.28%	91.6 ± 3.6%	47.38 ± 0.098%	46.8 ± 2.5%	114 ± 4.2%	104.4 ± 0.4%	103 ± 2.5%	96.69 ± 0.62%	49.3 ± 1.3%	51.8 ± 2.4%
